{"source": "patent US20180022711A1", "about": "“NOVEL CRYSTAL FORMS OF THE MONOSODIUM SALT OF FORAMSULFURON” (BAYER CROPSCIENCE AKTIENGESELLSCHAFT, priority 2014, published 2018)", "format_in_all_cases": "physicochemical", "key": {"[1]": {"test": "Hygroscopicity: open storage over water for one week at 25° C., water content by Karl Fischer titration", "conditions": "for Water content of the sample after storage: one week at 25° C. in sealed beaker over water, Karl Fischer titration", "experimental": "100 mg each of crystal forms A, B and C were separately filled into small glass vials with snap-on caps. These three glass vials with snap-on caps were placed unsealed in a glass beaker of which the bottom was covered with a small amount of water. The glass beaker was then sealed with a reversible sealing film and stored for one week at 25° C. After this storage period, the water content of the respective sample was determined by Karl Fischer titration."}, "[2]": {"test": "Sorption/desorption curve, isothermal at 25° C.", "conditions": "for Desorption (% by weight) / Sorption (% by weight): 25° C.", "experimental": "Sorption and desorption curves of crystal form B were measured isothermically at 25° C. The sorption curve gives the water uptake at increasing relative humidity and the desorption curve gives the drying behaviour on moisture reduction."}, "[3]": {"test": "Stability test of crystal form B in methanol", "conditions": "suspended in methanol, stirred 7 days at 30° C., filtered and dried", "experimental": "10 g of crystal form B (MeOH content<0.01%) were suspended in 100 g of methanol and stirred for 7 days at 30° C. The product was filtered and then dried overnight at 70° C. and a pressure<100 mbar. 9.1 g of a 99.4% strength product were obtained. The methanol content in the product obtained was 0.004% by weight and the acetone content was 0.0003% by weight."}, "[4]": {"test": "Storage of methanol-moist crystal form A and conversion into crystal form C", "experimental": "In separate containers, 5 g each of crystal form A were each stirred with 20 g of MeOH and subsequently filtered off.\nAt 20° C., 30° C. and 35° C., the moistened products were stored for one week and a sample taken daily. These samples were dried at 65° C. and 100 mbar and the respective methanol content subsequently determined.\nAlready after 2 days (35° C.), 3 days (30° C.) and 7 days (20° C.), crystal form A had converted practically completely into crystal form C (MeOH content about 6.4% by weight)."}}, "note": "“Also recorded” adds a separate entry of the source."}
{"smiles": "COc1cc(OC)nc(NC(=O)NS(=O)(=O)c2cc(NC=O)ccc2C(=O)N(C)C)n1.[Na]", "note": "[Crystal form C]", "values": [{"measurement": "Water content of the sample after storage", "setting": "[1]; listed as crystal form C", "result": 21.3, "unit": "% by weight"}]}
{"smiles": "COc1cc(OC)nc(NC(=O)[N-]S(=O)(=O)c2cc(NC=O)ccc2C(=O)N(C)C)n1.[Na+]", "note": "[Crystal form B, monosodium salt of foramsulfuron]", "values": [{"measurement": "Hygroscopicity (in words)", "setting": "[2]; conclusion from sorption/desorption at 25° C.", "result": "not hygroscopic; also recorded: non-hygroscopic"}, {"measurement": "Desorption (% by weight)", "setting": "[2]; relative humidity 10.0%", "result": 0.846, "unit": "% by weight"}, {"measurement": "Sorption (% by weight)", "setting": "[2]; relative humidity 10.0%", "result": 0.100, "unit": "% by weight"}, {"measurement": "Desorption (% by weight)", "setting": "[2]; relative humidity 20.0%", "result": 1.227, "unit": "% by weight"}, {"measurement": "Sorption (% by weight)", "setting": "[2]; relative humidity 20.0%", "result": 0.201, "unit": "% by weight"}, {"measurement": "Desorption (% by weight)", "setting": "[2]; relative humidity 30.0%", "result": 1.495, "unit": "% by weight"}, {"measurement": "Sorption (% by weight)", "setting": "[2]; relative humidity 30.0%", "result": 0.313, "unit": "% by weight"}, {"measurement": "Desorption (% by weight)", "setting": "[2]; relative humidity 40.0%", "result": 1.760, "unit": "% by weight"}, {"measurement": "Sorption (% by weight)", "setting": "[2]; relative humidity 40.0%", "result": 0.444, "unit": "% by weight"}, {"measurement": "Desorption (% by weight)", "setting": "[2]; relative humidity 50.0%", "result": 2.086, "unit": "% by weight"}, {"measurement": "Sorption (% by weight)", "setting": "[2]; relative humidity 50.0%", "result": 0.566, "unit": "% by weight"}, {"measurement": "Desorption (% by weight)", "setting": "[2]; relative humidity 60.0%", "result": 2.269, "unit": "% by weight"}, {"measurement": "Sorption (% by weight)", "setting": "[2]; relative humidity 60.0%", "result": 0.684, "unit": "% by weight"}, {"measurement": "Desorption (% by weight)", "setting": "[2]; relative humidity 70.0%", "result": 2.485, "unit": "% by weight"}, {"measurement": "Sorption (% by weight)", "setting": "[2]; relative humidity 70.0%", "result": 0.864, "unit": "% by weight"}, {"measurement": "Desorption (% by weight)", "setting": "[2]; relative humidity 80.0%", "result": 3.016, "unit": "% by weight"}, {"measurement": "Sorption (% by weight)", "setting": "[2]; relative humidity 80.0%", "result": 1.085, "unit": "% by weight"}, {"measurement": "Desorption (% by weight)", "setting": "[2]; relative humidity 90.0%", "result": 5.151, "unit": "% by weight"}, {"measurement": "Sorption (% by weight)", "setting": "[2]; relative humidity 90.0%", "result": 2.335, "unit": "% by weight"}, {"measurement": "Water content of the sample after storage", "setting": "[1]", "result": 0.4, "unit": "% by weight"}, {"measurement": "Appearance of the sample after storage", "setting": "[1]; one week at 25° C. over water", "result": "still crystalline and powdery"}, {"measurement": "Methanol content in the product obtained", "setting": "[3]", "result": 0.004, "unit": "% by weight"}]}
{"smiles": "COc1cc(OC)nc(NC(=O)NS(=O)(=O)c2cc(NC=O)ccc2C(=O)N(C)C)n1.[Na]", "note": "[Crystal form A, reference compound]", "values": [{"measurement": "Water content of the sample after storage", "setting": "[1]; listed as crystal form A", "result": 15.7, "unit": "% by weight"}, {"measurement": "Appearance of the sample after storage", "setting": "[1]; one week at 25° C. over water", "result": "very ductile and sticky"}, {"measurement": "Hygroscopicity (in words)", "setting": "[1]; one week at 25° C. over water", "result": "hygroscopic"}, {"measurement": "Time until practically complete conversion into crystal form C", "setting": "[4]; stored at 20° C.", "result": 7, "unit": "days"}, {"measurement": "Time until practically complete conversion into crystal form C", "setting": "[4]; stored at 30° C.", "result": 3, "unit": "days"}, {"measurement": "Time until practically complete conversion into crystal form C", "setting": "[4]; stored at 35° C.", "result": 2, "unit": "days"}]}
